Source: patent US20250163068A1, “COMPOUNDS AND THEIR METHODS OF USE” (Praxis Precision Medicines, Inc., priority 2016, published 2025)
Where two headings read alike, the source gives them in different places. Blank lines part the entries; values can stand above or below the molecule they belong to.

Key:
CYP1A2 = CYP1A2 (Homo sapiens (Human), UniProt P05177); test: CYP1A2 inhibition in human liver microsomes; type: in vitro ADME
Description: The specific marker metabolites are measured with LC/MS/MS. The remaining enzymatic activities and inhibitory potency IC50 are determined. Microsomes are removed out of the −80° C. freezer to thaw on ice and 20 μL of the substrates solution added to the corresponding wells. […] Then 158 μL of the HLM working solution was added to all wells of the incubation plate. The plate was pre-warmed for about 10 min using a 37° C. water bath. Then 20 μL of the NADPH cofactor solution was added to all incubation wells, mixed and incubated for 10 minutes at 37° C. water bath. The reaction is terminated by adding 400 μL cold stop solution (200 ng/mL Tolbutamide and 200 ng/mL Labetalol in ACN). […] Finally 200 μL of the supernatant was transferred to 100 μL HPLC water, shaken for 10 min and analyzed by LC/MS/MS.

[1] = PK rat clearance experiment; settings: male Sprague-Dawley rats, single intravenous bolus 0.5 mg/kg, plasma
Description: (§1) The IV dosing solution was prepared freshly on the dosing day. Test article (0.5 mg/kg) was prepared in a vehicle, for example, consisting of 5% DMSO/5% solutol/90% water. The concentrations of test article in all dosing solutions were determined by HPLC/UV. Three male Sprague-Dawley rats were used in this study. The animals were confirmed healthy before being assigned to the study. Each animal was given a unique identification number which was marked on the tail or the ear, and written on the cage card. All animals were fasted overnight before dosing and the food was returned at 4 hours post dosing. Water was provided to all animals ad libitum during the fasting period. Animals were weighed prior to dose administration on the day of dosing for calculating the actual dose volume. The body weights were in the range from 212 g to 223 g for males. All animals received test article by single intravenous bolus administration at 0.5 mg/kg. Approximately 0.2 mL blood was collected at each time point via jugular vein from each study animal. […] All blood samples were transferred into pre-labeled plastic micro centrifuge tubes and mixed with the pre-loaded anti-coagulant K2EDTA (5 μL, 0.5 M). Plasma samples were then prepared by centrifuging the blood samples. All plasma samples were then quickly frozen over dry ice and kept at −60° C. or lower until LC/MS/MS analysis. The concentrations of test article in plasma were determined by using a quantitative bioanalytical LC/MS/MS method. The lower limit of quantitation (LLOQ) for test article in plasma was 1 ng/mL, and the upper limit of quantitation (ULOQ) in plasma was 3000 ng/mL. The plasma concentration of test article in rats was subjected to a non compartmental pharmacokinetic analysis by using the Phoenix WinNonlin software (version 6.3, Pharsight, Mountain View, CA).
(§2) The linear/log trapezoidal rule was applied in obtaining the PK parameters.

human Nav1.6 (hNav1.6) = human Nav1.6 (hNav1.6) (Homo sapiens (Human), UniProt Q9UQD0); test: Inhibition of late sodium current (INaL) at hNav1.6, PatchXpress electrophysiology; type: cell-based; settings: 1 μM compound; HEK-293 cells expressing recombinant hNav1.6; late current evoked by 300 nM ATX-II
human Nav1.6 (hNav1.6), sequence (Q9UQD0 whole entry): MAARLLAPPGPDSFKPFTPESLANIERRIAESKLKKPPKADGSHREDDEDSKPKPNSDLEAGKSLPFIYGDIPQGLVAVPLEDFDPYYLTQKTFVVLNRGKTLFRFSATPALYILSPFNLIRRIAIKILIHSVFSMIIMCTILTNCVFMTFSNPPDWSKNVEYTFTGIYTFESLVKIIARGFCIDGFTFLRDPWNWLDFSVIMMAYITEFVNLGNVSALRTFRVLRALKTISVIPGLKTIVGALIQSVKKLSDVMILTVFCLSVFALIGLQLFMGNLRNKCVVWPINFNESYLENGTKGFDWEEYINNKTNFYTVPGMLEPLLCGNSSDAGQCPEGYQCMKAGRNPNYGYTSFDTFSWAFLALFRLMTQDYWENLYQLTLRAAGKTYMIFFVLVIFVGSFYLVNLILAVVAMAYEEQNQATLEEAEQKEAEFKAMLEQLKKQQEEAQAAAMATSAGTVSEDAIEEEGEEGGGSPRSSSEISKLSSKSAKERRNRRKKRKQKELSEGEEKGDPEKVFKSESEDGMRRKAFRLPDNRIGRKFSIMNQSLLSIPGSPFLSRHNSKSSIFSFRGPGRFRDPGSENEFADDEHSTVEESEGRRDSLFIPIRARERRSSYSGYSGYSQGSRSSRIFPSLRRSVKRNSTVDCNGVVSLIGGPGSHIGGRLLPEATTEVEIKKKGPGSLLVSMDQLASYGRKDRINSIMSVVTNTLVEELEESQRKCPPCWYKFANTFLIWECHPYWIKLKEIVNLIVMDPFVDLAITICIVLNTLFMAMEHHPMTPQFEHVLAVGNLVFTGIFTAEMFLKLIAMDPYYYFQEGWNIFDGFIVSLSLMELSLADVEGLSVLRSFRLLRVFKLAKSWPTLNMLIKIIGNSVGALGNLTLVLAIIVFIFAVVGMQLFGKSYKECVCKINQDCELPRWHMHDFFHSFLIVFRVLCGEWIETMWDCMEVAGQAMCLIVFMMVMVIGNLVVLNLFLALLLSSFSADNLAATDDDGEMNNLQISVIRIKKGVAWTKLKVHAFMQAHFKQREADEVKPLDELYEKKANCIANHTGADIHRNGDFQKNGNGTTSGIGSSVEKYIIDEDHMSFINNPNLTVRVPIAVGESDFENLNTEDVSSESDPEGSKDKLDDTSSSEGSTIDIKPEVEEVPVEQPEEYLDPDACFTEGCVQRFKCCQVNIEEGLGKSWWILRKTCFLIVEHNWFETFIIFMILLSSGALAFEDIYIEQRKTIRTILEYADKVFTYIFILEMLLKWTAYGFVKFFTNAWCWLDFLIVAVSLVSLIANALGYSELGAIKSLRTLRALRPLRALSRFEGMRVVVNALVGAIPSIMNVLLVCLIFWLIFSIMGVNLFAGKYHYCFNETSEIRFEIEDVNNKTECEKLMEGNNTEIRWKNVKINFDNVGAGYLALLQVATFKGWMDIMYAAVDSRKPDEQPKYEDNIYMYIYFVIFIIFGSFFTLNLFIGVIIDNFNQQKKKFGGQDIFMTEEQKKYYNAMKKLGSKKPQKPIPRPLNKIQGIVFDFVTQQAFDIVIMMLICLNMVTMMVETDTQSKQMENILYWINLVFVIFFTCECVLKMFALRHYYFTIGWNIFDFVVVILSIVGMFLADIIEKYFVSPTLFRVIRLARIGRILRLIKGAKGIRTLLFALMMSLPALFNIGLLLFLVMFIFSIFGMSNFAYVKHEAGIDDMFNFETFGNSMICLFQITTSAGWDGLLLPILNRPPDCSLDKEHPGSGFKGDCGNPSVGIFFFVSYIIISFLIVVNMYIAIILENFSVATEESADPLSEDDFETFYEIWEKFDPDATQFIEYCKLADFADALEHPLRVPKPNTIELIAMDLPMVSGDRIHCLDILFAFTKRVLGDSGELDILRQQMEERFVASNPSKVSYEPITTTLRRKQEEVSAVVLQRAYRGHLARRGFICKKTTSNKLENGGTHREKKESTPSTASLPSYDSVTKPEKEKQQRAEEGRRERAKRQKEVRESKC
Description: Functional characterization of exemplary compounds to modulate INaL expressed by the Nav1.6 voltage-gated sodium channel was accomplished using the PatchXpress™ high throughput electrophysiology platform (Molecular Devices, Sunnyvale, CA). HEK-293 cells expressing recombinant, human Nav1.6 (hNav1.6)were grown in DMEM/high-glucose Dulbecco's modified, 10% FBS, 2 mM sodium pyruvate, 10 mM HEPES and 400 μg/mL G418. Cells were grown to 50%-80% confluency prior to harvesting. […] The onboard liquid handling facility of the PatchXpress was used for dispensing cells and applying test compounds. Nav late currents were evoked by the application of 300 nM ATX-II. […] INaL amplitude and stability were determined by analyzing the mean current amplitude over the final 20 ms of the test pulse. […] Percent steady-state inhibition of INaL was calculated as: [(INaL_compound)/(INaL_control)]*100, where INaL_compound and INaL_control represent INaL recorded in the presence or absence of compound, respectively.

[2] = rat, in vivo, iv, 0.5 mg/kg
Description: as §1, §2

[3] = pooled human liver microsomes, substrate Phenacetin, read-out: CYP1A2 IC50 mean

CYP1A2, sequence (P05177 whole entry): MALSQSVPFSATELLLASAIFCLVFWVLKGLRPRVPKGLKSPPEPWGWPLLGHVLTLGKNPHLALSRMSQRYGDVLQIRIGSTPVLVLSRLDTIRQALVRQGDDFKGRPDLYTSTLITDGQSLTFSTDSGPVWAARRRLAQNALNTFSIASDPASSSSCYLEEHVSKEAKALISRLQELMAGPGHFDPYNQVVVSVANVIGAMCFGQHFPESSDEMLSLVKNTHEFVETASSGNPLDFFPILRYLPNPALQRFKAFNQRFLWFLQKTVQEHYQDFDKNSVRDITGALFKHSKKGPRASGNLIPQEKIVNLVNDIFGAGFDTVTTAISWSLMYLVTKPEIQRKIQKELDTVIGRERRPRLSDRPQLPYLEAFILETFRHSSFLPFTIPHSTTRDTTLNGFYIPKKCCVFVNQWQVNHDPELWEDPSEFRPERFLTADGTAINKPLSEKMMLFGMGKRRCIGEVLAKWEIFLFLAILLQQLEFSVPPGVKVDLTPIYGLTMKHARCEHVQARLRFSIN

SMILES: FC(F)(F)Oc1ccc(-c2ccc3nnc(C4CC4(F)F)n3n2)cc1 (stereo not drawn) [Compound 46]
IC50 (CYP1A2; [3]): 1 to 15 µM
Clearance [1]: 4.7 mL/min/kg
T1/2 [1]: 4.5 h
INaL v1.6 (1 μM, % Inhibition) (human Nav1.6 (hNav1.6)): C (inhibition of greater than 70%)

SMILES: FC(F)c1nnc2cnc(-c3ccc(OC(F)(F)F)cc3)cn12 [Compound 47]
IC50 (CYP1A2; microsomes): < 1 µM

SMILES: COc1cc(OC(F)(F)F)ccc1-c1cn2c(C(F)F)nnc2cn1 [Compound 48]
IC50 (CYP1A2; microsomes): < 1 µM

SMILES: COCc1cc(OC(F)(F)F)ccc1-c1cn2c(C(F)(F)F)nnc2cn1 [Compound 66]
IC50 (CYP1A2; microsomes): 1 to 15 µM
INaL v1.6 (1 μM, % Inhibition) (human Nav1.6 (hNav1.6)): C (inhibition of greater than 70%)

SMILES: Fc1cc(-c2cn3c(C(F)F)nnc3cn2)cnc1OCC(F)(F)F [Compound 68]
IC50 (CYP1A2; [3]): > 30 µM
Clearance [1]: 15.8 mL/min/kg
T1/2 [1]: 1.5 h
INaL v1.6 (1 μM, % Inhibition) (human Nav1.6 (hNav1.6)): B (inhibition of between about 30% to about 70%)

SMILES: Fc1cc(-c2cn3c(C(F)(F)F)nnc3cn2)cnc1OC1CC(F)(F)C1 [Compound 84]
IC50 (CYP1A2; [3]): 1 to 15 µM
Clearance [1]: 21.9 mL/min/kg
T1/2 [1]: 2.1 h
INaL v1.6 (1 μM, % Inhibition) (human Nav1.6 (hNav1.6)): C (inhibition of greater than 70%)

SMILES: C[C@@H](Oc1ncc(-c2cn3c(C(F)F)nnc3cn2)cc1F)C(F)(F)F [Compound 134]
Clearance [2]: 10.9 mL/min/kg
T1/2 [2]: 2.6 h
IC50 (CYP1A2; microsomes): > 30 µM
INaL v1.6 (1 μM, % Inhibition) (human Nav1.6 (hNav1.6)): C (inhibition of greater than 70%)

Second part, the molecule after the results:

IC50 (CYP1A2; microsomes): < 1 µM
SMILES: FC(F)(F)c1ccc(-c2ccc3nnc(C(F)(F)F)n3n2)cc1 [Compound 1]

IC50 (CYP1A2; [3]): < 1 µM
SMILES: FC(F)(F)Oc1ccc(-c2cn3c(C(F)(F)F)nnc3cn2)cc1 [Compound 56]

IC50 (CYP1A2; microsomes): < 1 µM
SMILES: FC(F)(F)c1ccc(-c2cn3c(C(F)(F)F)nnc3cn2)cc1 [Compound 62]

IC50 (CYP1A2; microsomes): < 1 µM
SMILES: COc1cc(OC(F)(F)F)ccc1-c1cn2c(C(F)(F)F)nnc2cn1 [Compound 70]

IC50 (CYP1A2; microsomes): < 1 µM
SMILES: Fc1cc(C(F)(F)F)ccc1-c1cn2c(C(F)(F)F)nnc2cn1 [Compound 76]

IC50 (CYP1A2; microsomes): < 1 µM
SMILES: Fc1cc(-c2cn3c(C(F)(F)F)nnc3cn2)ccc1OC(F)(F)F [Compound 79]

IC50 (CYP1A2; microsomes): < 1 µM
SMILES: COC(F)(F)c1nnc2cnc(-c3ccc(OC(F)(F)F)cc3)cn12 [Compound 97]

IC50 (CYP1A2; microsomes): < 1 µM
SMILES: Cc1cc(-c2ccc3nnc(C(F)(F)F)n3n2)ccc1C(F)(F)F [Compound 98]

IC50 (CYP1A2; microsomes): < 1 µM
SMILES: FC(F)Oc1ccc(-c2ccc3nnc(C(F)(F)F)n3n2)cc1 [Compound 116]

IC50 (CYP1A2; microsomes): < 1 µM
SMILES: FC(F)(F)OCc1ccc(-c2ccc3nnc(C(F)(F)F)n3n2)cc1 [Compound 118]
